Data as given in US6355665B1, “1H-4(5)-substituted imidazole derivatives, their preparation and their use as histamine H3 receptor ligands” (James Black Foundation Limited, priority 1997, dated 2002).
Where two headings read alike, the source gives them in different places.

What was measured:
[1] = target: T1, Histamine H3 receptor (Cavia porcellus, UniProt Q9JI35); assay: Histamine H3 radioligand binding assay, guinea pig cortex ([3H]-R-α-methylhistamine); set-up: The cortex was dissected, weighed and homogenised in ice-cold 20 mM Hepes-NaOH buffer; from tissue; host or cells: guinea pig cerebral cortex membranes
T1 sequence (Q9JI35 whole entry): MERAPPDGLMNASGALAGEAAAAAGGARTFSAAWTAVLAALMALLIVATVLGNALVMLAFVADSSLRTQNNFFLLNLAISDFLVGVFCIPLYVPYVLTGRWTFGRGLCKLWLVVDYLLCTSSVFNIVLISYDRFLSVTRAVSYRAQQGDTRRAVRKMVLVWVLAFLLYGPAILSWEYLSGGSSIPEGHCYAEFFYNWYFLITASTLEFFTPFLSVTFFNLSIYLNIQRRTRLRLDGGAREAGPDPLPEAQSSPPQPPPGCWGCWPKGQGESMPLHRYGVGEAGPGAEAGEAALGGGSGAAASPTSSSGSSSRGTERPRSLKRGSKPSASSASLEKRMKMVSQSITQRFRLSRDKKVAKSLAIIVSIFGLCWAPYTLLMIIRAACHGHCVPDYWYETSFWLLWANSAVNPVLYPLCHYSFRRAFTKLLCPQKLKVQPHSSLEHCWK
Method: Histamine H3 Radioligand Binding Assay—Guinea Pig Cortex
Male Dunkin Hartley guinea pigs (200-300 g) were used. The whole brain was removed and immediately placed in ice-cold 20 mM Hepes-NaOH buffer (pH7.4 at 21±3° C.). The cortex was dissected, weighed and homogenised in ice-cold 20 mM Hepes-NaOH buffer (pH7.4 at 21±3° C.) (50 ml/guinea-pig cortex) using a polytron (Kinematica AG; PT-DA 3020/2TS, 3×3 s). The homogenate was centrifuged at 100×g for 5 min and the supernatants pooled and stored at 4° C. The pellets were rehomogenised in fresh ice-cold buffer (80 ml) and recentrifuged (100×g for 5 min). The supernatants were pooled and pellets rehomogenised and recentrifuged (100×g for 5 min). All supernatants were pooled and centrifuged at 39,800×g for 12 min at 4° C. The final pellet was resuspended in 20 mM Hepes-NaOH buffer (pH7.4 at 21±3° C.) to a tissue concentration of 7.5 mg.ml^−1, using a teflon-in-glass homogeniser.
Incubation Conditions and Data Analysis
These were essentially identical to those used for the guinea pig ileum myenteric plexus assay described above, except that the final assay concentration of [^3H]-R-α-methylhistamine was 0.1 nM. Typical variance in this assay is ±0.12 log units.

[2] = target: T1, Histamine H3 receptor; assay: ileal longitudinal muscle, myenteric plexus functional assay (rightward shift of R-(α)-methylhistamine E/[A] curves, Schild); format: cell-based; set-up: the longitudinal muscle layer and adhering myenteric plexus was teased away; from tissue; host or cells: guinea pig ileal longitudinal muscle with myenteric plexus (organ bath); details: guinea pig ileum longitudinal muscle myenteric plexus, electrically stimulated; antagonism of R-(α)-methylhistamine; typical variance ±0.15 log units; read-out: pKB (functional assay) - ileum (converted)
Method: The biological activity of the compounds of the examples was measured using the ileal longitudinal muscle, myenteric plexus assay described by Paton and Aboo Zar (J. Physiol. 1968, 194, 13-33). Male Dunkin-Hartley guinea pigs (250-300 g) were employed. Briefly, a 50 cm portion of ileum proximal to the caecum was removed, after discarding the terminal 20 cm. Ileal segments (3 cm) were cleaned by passing Krebs-Henseleit buffer containing 3 μM mepyramine gently through the ileum using a Pasteur pipette (size: 13.8 cm length, 0.65 cm diameter). To avoid unnecessary damage to the tissue, Krebs-Henseleit buffer was passed through the ileal segment, while it was lying horizontally on a petri dish. Therefore, the ileum was not over-distended and the buffer flowed through with ease. Each segment was then passed over a Pasteur pipette and the longitudinal muscle layer and adhering myenteric plexus was teased away using moist cotton wool, by stroking tangentially away from the mesenteric attachment. The tissues were suspended in 20 ml organ baths containing Krebs-Henseleit buffer at 37±1° C. and gassed with 95% CO2/5% O2. The tissues were ligated to two parallel stainless steel wires, situated between two platinum electrodes (0.76 cm length, 0.06 cm diameter). All measurements were recorded isometrically (Grass FTO3 transducer). Following an initial loading tension of 1 g, the tissues were stimulated with electrical pulses at a frequency of 0.1 Hz and a pulse duration of 0.5 msec, as described by Kosterlitz & Watt (Br. J. Pharmacol. 1968, 266-276). Initially, the tissues were stimulated at supramaximal (1.3 fold times maximal) voltage for a period of 30 min and then the tissues were washed and re-stimulated. A “sighter dose” of the selective histamine H3-receptor agonist, R-(α)-methylhistamine (0.3 μM) (Arrang et al. Nature, 1987, 117-123), was administered. Upon generation of response, the “sighter dose” was removed from the tissues by “washout” (6 washes over 60 min) and during this period the electrical stimulation was switched off. The tissues were then re-stimulated and allowed to stabilise prior to the addition of drug treatments, which were allocated on a randomised block basis to the organ baths. Following the incubation period, a single cumulative E/[A] curve was obtained. The experimental E/[A] curve data was expressed as the percentage inhibition of the peak height of electrically-stimulated contraction. Antagonist affinity values were calculated from the degree of rightward shift of the R-(α)-methylhistamine E/[A] curves using Schild's methods (Arunlakshana & Schild Br. J. Pharmacol. 1959, 48-58). Typical variance in this assay is ±0.15 log units.

[3] = guinea pig cortex membranes, [3H]-R-α-methylhistamine 0.1 nM, typical variance ±0.12 log units, read-out: pKI (binding assay) - cortex (converted)

O=S(=O)(CC(O)CCCc1c[nH]cn1)NCC1CCCCC1 (stereo not shown) [Example 18, N-Cyclohexylmethyl-2-hydroxy-5-(1H-imidazol-4-yl)-1-pentanesulfonamide] was tested, and the Ki [1, 3] was 141 nM and the Kb [2] was 389 nM.
O=S(=O)(CC(O)CCCc1c[nH]cn1)NCc1cccc(Cl)c1 (stereo not shown) [Example 22, N-(3-Chlorobenzyl)-2-hydroxy-5-(1H-imidazol-4-yl)-1-pentanesulfonamide] was tested, and the Ki [1, 3] was 28.8 nM and the Kb [2] was 79.4 nM.
Compound O=S(=O)(CCCCCc1c[nH]cn1)NCC1CCCCC1 [Example 17, N-Cyclohexylmethyl-5-(1H-imidazol-4-yl)-1-pentanesulfonamide] has a Ki [1, 3] of 21.9 nM and a Kb [2] of 46.8 nM.
NCC(CCCc1c[nH]cn1)CS(=O)(=O)NCc1ccc(Cl)cc1 (stereo not shown) [Example 38, 2-Aminomethyl-N-(4-chlorobenzyl)-5-(1H-imidazol-4-yl)-1-pentanesulfonamide] showed a Ki [1, 3] of 1.32 nM and a Kb [2] of 12.3 nM.
Work on O=S1(=O)C2C=CC(c3c[nH]cn3)CC2CN1Cc1ccc(Cl)cc1 (stereo not shown) [Example 42, 2-(4-Chlorohenzyl)-5-(1H-imidazol-4-yl)-2,3,3a, 4,5,7a-hexahydro-benzo[d]isothiazole 1,1-dioxide] yielded a Ki [1, 3] of 1230 nM and a Kb [2] of 2090 nM.
O=S(=O)(CC(O)CCCCc1c[nH]cn1)NCc1ccc(Cl)cc1 (stereo not shown) [Example 8, N-(4-Chlorobenzyl)-2-hydroxy-6-(1H-imidazol-4-yl)-1-hexanesulfonamide] gave a Ki [1, 3] of 4.27 nM and a Kb [2] of 12.6 nM.
O=C(CCc1c[nH]cn1)CS(=O)(=O)NCc1ccc(Cl)cc1 [Example 4, N-(4-Chlorobenzyl)-2-oxy-4-(1H-imidazol-4-yl)-1-butanesulfonamide] was tested, and the Ki [1, 3] was 61.7 nM and the Kb [2] was 257 nM.
Work on Cc1ccc(CNS(=O)(=O)CCCCCc2c[nH]cn2)cc1 [Example 29, N-(4-Methylbenzyl)-5-(1H-imidazol-4-yl)-1-pentanesulfonamide] yielded a Ki [1, 3] of 6.17 nM and a Kb [2] of 25.7 nM.
For O=S(=O)(CCCCc1c[nH]cn1)CCc1ccccc1 [Example 23, [4-(1H-Imidazol-4-yl)butyl]phenethyl sulfone], the Ki [1] was 47.9 nM and the Kb [2] was 214 nM.
CN(Cc1ccc(Cl)cc1)S(=O)(=O)CCCCCc1c[nH]cn1 [Example 34, N-(4-Chlorobenzyl)-N-methyl-5-(1H-imidazol-4-yl)-1-pentanesulfonamide] showed a Ki [1, 3] of 10.2 nM and a Kb [2] of 17.4 nM.
Compound O=S(=O)(/C=C/CCCc1c[nH]cn1)NCc1ccc(Cl)cc1 [Example 32, (E)-N-(4-Chlorobenzyl)-5-(1H-imidazol-4-yl)-1-pent-1-enesulfonamide] has a Ki [1, 3] of 5.89 nM and a Kb [2] of 25.1 nM.
In the case of O=S(=O)(CCCCc1c[nH]cn1)NCCc1ccc(Cl)cc1 [Example 9, N-(4-Chlorophenethyl)-4-(1H-imidazol-4-yl)-1-butanesulfonamide], the Ki [1, 3] is reported as 44.7 nM and the Kb [2] is reported as 302 nM.
For O=S(=O)(CCCCCCc1c[nH]cn1)NCc1ccc(Cl)cc1 [Example 7, N-(4-Chlorobenzyl)-6-(1H-imidazol-4-yl)-1-hexanesulfonamide], the Ki [1, 3] was 2.88 nM and the Kb [2] was 5.13 nM.
With O=S(=O)(/C=C/C=C/c1c[nH]cn1)NCc1ccc(Cl)cc1 [Example 41, (E,E)-N-(4-Chlorobenzyl)-4-(1H-imidazol-4-yl)-1-but-1,3-dienesulfonamide] the Ki [1, 3] was 1580 nM and the Kb [2] was 2630 nM.
With O=S(=O)(CCCCCc1c[nH]cn1)NCc1ccc(C(F)(F)F)cc1 [Example 30, N-(4-Trifluoromethylbenzyl)-5-(1H-imidazol-4-yl)-1-pentanesulfonamide] the Ki [1, 3] was 1.51 nM and the Kb [2] was 9.33 nM.
Compound O=S(=O)(CCCCCc1c[nH]cn1)NCC12CC3CC(CC(C3)C1)C2 [Example 31, N-(1-Adamantylmethyl)-5-(1H-imidazol-4-yl)-1-pentanesulfonamide] has a Ki [1, 3] of 186 nM and a Kb [2] of 174 nM.
O=S(=O)(CC(O)CCc1c[nH]cn1)NCc1ccc(Cl)cc1 (stereo not shown) [Example 2, N-(4-Chlorobenzyl)-2-hydroxy-4-(1H-imidazol-4-yl)-1-butanesulfonamide] gave a Ki [1, 3] of 275 nM and a Kb [2] of 240 nM.
